Experimental findings from patent publication EP4748839A1 (CSPC Zhongqi Pharmaceutical Technology (Shijiazhuang) Co., …, priority 2023, dated 2025) are described below.

The target of this assay is T1, GLP-1R (Homo sapiens, UniProt P43220).
T1 construct: expressed in transfected cells
Kind of assay: GLP-1R agonistic effect in GLP1R-cAmp-Luc cells (luciferase reporter; titled 'Enzymatic assay'). The format is cell-based. As to conditions: for EC50: 4 hours incubation, firefly luciferin signal; for EC50 of Positive reference / EC50 of Compound of the Present Application: Positive reference is PF-06882961. As for the experimental part:
The GLP-1R agonistic effects of the test compounds were determined using GLP1R-cAmp-Luc cells. 1) The test compound was dissolved in DMSO and mixed well until the test compound was completely dissolved. The test compounds were dissolved in DMSO to prepare 10 mM stock solutions. All compounds were diluted with DMEM medium (high sugar, Puromycin^+, Hygromycin B^+) to an initial concentration of 1250 nM, and then subjected to 5-fold serial dilution to a total of 7 concentration gradients. The GLP1R-cAmp-Luc cells were seeded in white-wall 96-well cell culture plates at a density of 1×10^5/mL, with 90 µL cell suspension per well; the test compound at each of the 7 concentration gradients was added at 10 µL per well, with the actual initial working concentration of 125 nM; and the cells were placed in a 37 °C, 5% CO2 cell incubator for 4 hours; 2) 100 µL of luciferin potassium salt solution diluted to 300 µg/mL in PBS was added to each well at a working concentration of 150 µg/mL and incubated at room temperature for 30 minutes; 3) fluorescence signals of firefly luciferin were measured with a multifunctional microplate reader (PerkinElmer, Nivo); and the fluorescence values were processed using GraphPad Prism software to calculate EC50 values.

Bounds are passed on as bounds.

T1 sequence (P43220 24-463, species assumed): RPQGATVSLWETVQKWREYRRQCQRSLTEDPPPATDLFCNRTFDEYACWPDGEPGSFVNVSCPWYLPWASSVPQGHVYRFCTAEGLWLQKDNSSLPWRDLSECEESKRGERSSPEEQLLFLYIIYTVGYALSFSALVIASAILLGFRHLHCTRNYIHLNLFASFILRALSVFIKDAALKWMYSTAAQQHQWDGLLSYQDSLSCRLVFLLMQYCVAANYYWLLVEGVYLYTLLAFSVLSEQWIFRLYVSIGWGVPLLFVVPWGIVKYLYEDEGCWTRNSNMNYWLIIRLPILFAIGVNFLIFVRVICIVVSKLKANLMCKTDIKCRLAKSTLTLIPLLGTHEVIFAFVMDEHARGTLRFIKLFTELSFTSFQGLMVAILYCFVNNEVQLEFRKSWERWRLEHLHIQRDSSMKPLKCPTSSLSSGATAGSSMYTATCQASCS

`COc1cc(C(=O)O)cc2c1nc(Cc1c(F)cc(-c3ccc(Cl)c(OCc4ccc(Cl)cc4F)n3)c3c1CCO3)n2C[C@@H]1CCO1` [Compound 108, (S)-2-((7-(5-chloro-6-((4-chloro-2-fluorobenzyl)oxy)pyridin-2-yl)-5-fluoro-2,3-dihydrobenzofuran-4-yl)methyl)-4-methoxy-1-(oxetan-2-ylmethyl)-1H-benzo[d]imidazole-6-carboxylic acid] returned an EC50 of 1 to 5 nM.

As for `COc1cc(C(=O)O)cc2c1nc(Cc1c(F)cc(-c3ccc(Br)c(OCc4ccc(Cl)cc4F)n3)c3c1CCO3)n2C[C@@H]1CCO1` [Compound 109, (S)-2-((7-(5-bromo-6-((4-chloro-2-fluorobenzyl)oxy)pyridin-2-yl)-5-fluoro-2,3-dihydrobenzofuran-4-yl)methyl)-4-methoxy-1-(oxetan-2-ylmethyl)-1H-benzo[d]imidazole-6-carboxylic acid], the EC50 lay within 1 to 5 nM.

In the case of `COc1cc(C(F)(F)F)ccc1COc1nccc(-c2cc(F)c(Cc3nc4c(OC)cc(C(=O)O)cc4n3C[C@@H]3CCO3)c3c2OCC3)n1` [Compound 110, (S)-2-((7-(2-((2-methoxy-4-(trifluoromethyl)benzyl)oxy)pyrimidin-4-yl)-5-fluoro-2,3-dihydrobenzofuran-4-yl)methyl)-4-methoxy-1-(oxetan-2-ylmethyl)-1H-benzo[d]imidazole-6-carboxylic acid], the EC50 was not above 1 nM and the “EC50 of Positive reference / EC50 of Compound of the Present Application” value is “Ratio ≥10”.

In the case of `CCn1cncc1Cn1c(Cc2c(F)cc(-c3cccc(OCc4ccc(Cl)cc4F)n3)c3c2CCO3)nc2c(OC)cc(C(=O)O)cc21` [Compound 111], the EC50 was in the range of 1 to 5 nM.

As to `COc1cc(C(=O)O)cc2c1nc(Cc1c(F)cc(-c3ccnc(OCc4ccc(Cl)cc4F)n3)c3c1CCO3)n2CC1(CF)CC1` [Compound 112, 2-((7-(2-((4-Chloro-2-fluorobenzyl)oxy)pyrimidin-4-yl)-5-fluoro-2,3-dihydrobenzofuran-4-yl)methyl)-1-((1-(fluoromethyl)cyclopropyl)methyl)-4-methoxy-1H-benzo[d]imidazole-6-carboxylic acid], the EC50 was 1 to 5 nM.

Turning to `COc1cc(C(=O)O)cc2c1nc(Cc1c(F)cc(-c3ccnc(OCc4ccc(Cl)cc4OC(F)F)n3)c3c1CCO3)n2C[C@@H]1CCO1` [Compound 113, (S)-2-((7-(2-((2-difluoromethoxy-4-chlorobenzyl)oxy)pyrimidin-4-yl)-5-fluoro-2,3-dihydrobenzofuran-4-yl)methyl)-4-methoxy-1-(oxetan-2-ylmethyl)-1H-benzo[d]imidazole-6-carboxylic acid], the EC50 was not above 1 nM and the “EC50 of Positive reference / EC50 of Compound of the Present Application” value is on record as “Ratio ≥10”.

`COc1cc(C(=O)O)cc2c1nc(Cc1c(F)cc(-c3ccc(F)c(OCc4ccc(Cl)cc4OC(F)F)n3)c3c1CCO3)n2C[C@@H]1CCO1` [Compound 114]: the concentration giving a half-maximal response (EC50) was not above 1 nM and the “EC50 of Positive reference / EC50 of Compound of the Present Application” value is on record as “Ratio ≥10”.

Consider `COc1cc(C(=O)O)cc2c1nc(Cc1c(F)cc(-c3ccc(F)c(OCc4ccc(C#N)cc4F)n3)c3c1CCO3)n2C[C@@H]1CCO1` [Compound 115], for which the EC50 is not above 1 nM and the “EC50 of Positive reference / EC50 of Compound of the Present Application” value was “Ratio ≥10”.

For `COc1cc(C(F)(F)F)ccc1COc1nc(-c2cc(F)c(Cc3nc4c(OC)cc(C(=O)O)cc4n3C[C@@H]3CCO3)c3c2OCC3)ccc1F` [Compound 116, (S)-2-((7-(5-fluoro-6-((2-methoxy-4-(trifluoromethyl)benzyl)oxy)pyridin-2-yl)-5-fluoro-2,3-dihydrobenzofuran-4-yl)methyl)-4-methoxy-1-(oxetan-2-ylmethyl)-1H-benzo[d]imidazole-6-carboxylic acid], the concentration giving a half-maximal response (EC50) is not above 1 nM and the “EC50 of Positive reference / EC50 of Compound of the Present Application” value is on record as “Ratio ≥10”.

Consider `COc1cc(C(=O)O)cc2c1nc(Cc1c(F)cc(-c3nccc(OCc4ccc(Cl)cc4F)n3)c3c1CCO3)n2C[C@@H]1CCO1` [Compound 117, (S)-2-((7-(4-((4-chloro-2-fluorobenzyl)oxy)pyrimidin-2-yl)-5-fluoro-2,3-dihydrobenzofuran-4-yl)methyl)-4-methoxy-1-(oxetan-2-ylmethyl)-1H-benzo[d]imidazole-6-carboxylic acid], for which the EC50 was not above 1 nM and the “EC50 of Positive reference / EC50 of Compound of the Present Application” value was “Ratio ≥10”.

In turn, `CC(C)Oc1cc(C(=O)O)cc2c1nc(Cc1c(F)cc(-c3ccnc(OCc4ccc(Cl)cc4F)n3)c3c1CCO3)n2C[C@@H]1CCO1` [Compound 119, (S)-2-((7-(2-((4-chloro-2-fluorobenzyl)oxy)-pyrimidin-4-yl)-5-fluoro-2,3-dihydrobenzofuran-4-yl)methyl)-4-isopropoxy-1-(oxetan-2-ylmethyl)-1H-benzo[d]imidazole-6-carboxylic acid] yielded an EC50 of 1 to 5 nM.

With `COc1cc(C(=O)O)cc2c1nc(Cc1c(F)cc(-c3ccnc(OCc4ccc(C5COC5)cc4F)n3)c3c1CCO3)n2C[C@@H]1CCO1` [Compound 120, (S)-2-((7-(2-((2-fluoro-4-(oxetan-3-yl)benzyl)oxy)pyrimidin-4-yl)-5-fluoro-2,3-dihydrobenzofuran-4-yl)methyl)-4-methoxy-1-(oxetan-2-ylmethyl)-1H-benzo[d]imidazole-6-carboxylic acid], the EC50 was not above 1 nM and the “EC50 of Positive reference / EC50 of Compound of the Present Application” value is given as “Ratio ≥10”.

Take `CCOc1cc(C(=O)O)cc2c1nc(Cc1c(F)cc(-c3ccnc(OCc4ccc(Cl)cc4F)n3)c3c1CCO3)n2C[C@@H]1CCO1` [Compound 121, (S)-2-((7-(2-((4-chloro-2-fluorobenzyl)oxy)pyrimidin-4-yl)-5-fluoro-2,3-dihydrobenzofuran-4-yl)methyl)-4-ethoxy-1-(oxetan-2-ylmethyl)-1H-benzo[d]imidazole-6-carboxylic acid]: the EC50 is not above 1 nM and the “EC50 of Positive reference / EC50 of Compound of the Present Application” value was “Ratio ≥10”.

Consider `CCOc1cc(C(=O)O)cc2c1nc(Cc1c(F)cc(-c3ccc(F)c(OCc4ccc(Cl)cc4F)n3)c3c1CCO3)n2C[C@@H]1CCO1` [Compound 122, (S)-2-((7-(6-((4-chloro-2-fluorobenzyl)oxy)-5-fluoropyridin-2-yl)-5-fluoro-2,3-dihydrobenzofuran-4-yl)methyl)-4-ethoxy-1-(oxetan-2-ylmethyl)-1H-benzo[d]imidazole-6-carboxylic acid], for which the EC50 lay in the range of 1 to 5 nM and the “EC50 of Positive reference / EC50 of Compound of the Present Application” value was “Ratio ≥10”.

`O=C(O)c1ccc2nc(Cc3c(F)cc(-c4ccnc(OCc5ccc(Cl)cc5F)n4)c4c3CCO4)n(C[C@@H]3CCO3)c2c1` [Compound 124, (S)-2-((7-(2-((4-chloro-2-fluorobenzyl)oxy)pyrimidin-4-yl)-5-fluoro-2,3-dihydrobenzofuran-4-yl)methyl)-1-(oxetan-2-ylmethyl)-1H-benzo[d]imidazole-6-carboxylic acid] yielded an EC50 not above 1 nM.

For `COc1cc(C(F)(F)F)ccc1COc1ccnc(-c2cc(F)c(Cc3nc4c(OC)cc(C(=O)O)cc4n3C[C@@H]3CCO3)c3c2OCC3)n1` [Compound 125, (S)-2-((7-(4-((2-methoxy-4-(trifluoromethyl)benzyl)oxy)pyrimidin-2-yl)-5-fluoro-2,3-dihydrobenzofuran-4-yl)methyl)-4-methoxy-1-(oxetan-2-ylmethyl)-1H-benzo[d]imidazole-6-carboxylic acid], the EC50 was not above 1 nM and the “EC50 of Positive reference / EC50 of Compound of the Present Application” value is “Ratio ≥10”.

As to `COc1cc(C(=O)O)cc2c1nc(Cc1c(F)cc(-c3ccc(F)c(OCc4ccc(C5COC5)cc4F)n3)c3c1CCO3)n2C[C@@H]1CCO1` [Compound 126, (S)-2-((7-(5-fluoro-6-((2-fluoro-4-(oxetan-3-yl)benzyl)oxy)pyridin-2-yl)-5-fluoro-2,3-dihydrobenzofuran-4-yl)methyl)-4-methoxy-1-(oxetan-2-ylmethyl)-1H-benzo[d]imidazole-6-carboxylic acid], the EC50 is not above 1 nM and the “EC50 of Positive reference / EC50 of Compound of the Present Application” value is listed as “Ratio ≥10”.

`COc1cc(C(=O)O)cc2c1nc(Cc1c(F)cc(-c3nccc(OCc4ccc(C5COC5)cc4F)n3)c3c1CCO3)n2C[C@@H]1CCO1` [Compound 127, (S)-2-((7-(4-((2-fluoro-4-(oxetan-3-yl)benzyl)oxy)pyrimidin-2-yl)-5-fluoro-2,3-dihydrobenzofuran-4-yl)methyl)-4-methoxy-1-(oxetan-2-ylmethyl)-1H-benzo[d]imidazole-6-carboxylic acid] came in with an EC50 of 1 to 5 nM.

`COc1cc(C(=O)O)cc2c1nc(Cc1c(F)cc(-c3nc(OCc4ccc(C5COC5)cc4F)ncc3F)c3c1CCO3)n2C[C@@H]1CCO1` [Compound 128, (S)-2-((7-(5-fluoro-2-((2-fluoro-4-(oxetan-3-yl)benzyl)oxy)pyrimidin-4-yl)-5-fluoro-2,3-dihydrobenzofuran-4-yl)methyl)-4-methoxy-1-(oxetan-2-ylmethyl)-1H-benzo[d]imidazole-6-carboxylic acid]: the EC50 is not above 1 nM and the “EC50 of Positive reference / EC50 of Compound of the Present Application” value is “Ratio ≥10”.

Consider `COc1cc(C(=O)O)cc2c1nc(Cc1c(F)cc(-c3ncc(F)c(OCc4ccc(C5COC5)cc4F)n3)c3c1CCO3)n2C[C@@H]1CCO1` [Compound 129, (S)-2-((7-(5-fluoro-4-((2-fluoro-4-(oxetan-3-yl)benzyl)oxy)pyrimidin-2-yl)-5-fluoro-2,3-dihydrobenzofuran-4-yl)methyl)-4-methoxy-1-(oxetan-2-ylmethyl)-1H-benzo[d]imidazole-6-carboxylic acid], for which the EC50 was not above 1 nM.
